# Data taken from US9023882B2, “5-membered nitrogen containing heterocyclic derivatives and pharmaceutical compositions comprising the same” (Kissei Pharmaceutical Co., Ltd., priority 2007, dated 2015).
# Biological target: Xanthine oxidase (from bovine milk, Sigma) (Bos taurus (Bovine), UniProt P80457)
# Test: Xanthine oxidase inhibitory activity
# Format: biochemical
# Details: 100 μM xanthine final, absorbance at 290 nm
# Method: (1) Preparation of Test Compounds
# Test compounds were dissolved in DMSO (Wako) at 40 mM concentration and then diluted to intended concentrations with phosphate-buffered saline (PBS).
# (2) Method for Measurement
# Xanthine oxidase (from bovine milk, Sigma) was prepared with phosphate-buffered saline (PBS) at 0.02 units/mL, and then the solution was added to 96 well plates at 50 μL/well. In addition, test compounds diluted with PBS were added at 50 μL/well. Xanthine (Wako) at 200 μM prepared with PBS was added at 100 μL/well, and the reaction was conducted for 10 minutes at room temperature. Absorbance at 290 nm was measured using a microplate reader SpectraMax Plus 384 (Molecular device). The absorbance under a condition without xanthine is 0%, and control without test compounds is 100%. Fifty % inhibitory concentration of a test compound (IC50) was calculated (Tables 91 to 92). Ex. No in the table indicates Example number.
# Xanthine oxidase (from bovine milk, Sigma), sequence (P80457 whole entry): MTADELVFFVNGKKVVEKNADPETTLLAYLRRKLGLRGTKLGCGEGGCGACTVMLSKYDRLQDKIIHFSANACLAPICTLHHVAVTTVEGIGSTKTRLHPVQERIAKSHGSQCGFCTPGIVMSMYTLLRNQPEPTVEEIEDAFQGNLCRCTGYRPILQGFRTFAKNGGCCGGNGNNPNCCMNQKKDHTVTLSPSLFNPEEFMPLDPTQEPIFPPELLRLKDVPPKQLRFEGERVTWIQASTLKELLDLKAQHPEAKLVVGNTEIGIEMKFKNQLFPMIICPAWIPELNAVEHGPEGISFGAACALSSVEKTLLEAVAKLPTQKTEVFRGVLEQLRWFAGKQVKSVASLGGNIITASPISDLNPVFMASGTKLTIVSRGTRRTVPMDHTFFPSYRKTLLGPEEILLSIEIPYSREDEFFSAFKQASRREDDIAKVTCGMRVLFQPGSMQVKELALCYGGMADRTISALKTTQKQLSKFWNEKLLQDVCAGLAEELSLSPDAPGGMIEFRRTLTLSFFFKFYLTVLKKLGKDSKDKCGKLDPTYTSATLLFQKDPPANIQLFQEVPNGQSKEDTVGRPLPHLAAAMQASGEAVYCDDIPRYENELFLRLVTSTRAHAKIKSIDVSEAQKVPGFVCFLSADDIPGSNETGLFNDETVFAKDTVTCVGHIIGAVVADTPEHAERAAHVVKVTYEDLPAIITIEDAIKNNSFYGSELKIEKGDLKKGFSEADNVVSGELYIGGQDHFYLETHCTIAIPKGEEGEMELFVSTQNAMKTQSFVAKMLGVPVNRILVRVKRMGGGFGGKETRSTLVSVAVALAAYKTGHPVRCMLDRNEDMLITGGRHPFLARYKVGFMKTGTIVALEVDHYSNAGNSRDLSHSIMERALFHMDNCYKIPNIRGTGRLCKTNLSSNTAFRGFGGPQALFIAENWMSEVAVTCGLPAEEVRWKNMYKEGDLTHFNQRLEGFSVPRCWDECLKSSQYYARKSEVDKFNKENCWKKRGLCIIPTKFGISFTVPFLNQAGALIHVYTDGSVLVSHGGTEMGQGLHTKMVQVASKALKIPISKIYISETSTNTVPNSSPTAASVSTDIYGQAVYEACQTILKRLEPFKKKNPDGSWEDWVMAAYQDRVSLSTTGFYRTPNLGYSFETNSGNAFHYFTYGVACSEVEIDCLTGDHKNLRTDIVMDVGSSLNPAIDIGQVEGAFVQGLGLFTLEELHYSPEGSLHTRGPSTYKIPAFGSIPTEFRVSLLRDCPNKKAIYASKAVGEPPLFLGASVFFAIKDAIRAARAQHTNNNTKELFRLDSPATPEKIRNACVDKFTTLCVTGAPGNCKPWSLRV
row,IC50 [µM],Compound
1,0.0199,N#Cc1cccc(-c2cn(-c3ccc(C(=O)O)c(O)c3)cc2C#N)c1 [Example 330]
2,0.0515,N#Cc1cn(-c2ccc(C(=O)O)c(O)c2)cc1-c1ccccc1OCc1ccccc1 [Example 332]
3,0.0595,N#Cc1cn(-c2ccc(C(=O)O)c(O)c2)cc1-c1ccc(COc2ccccc2)cc1 [Example 334]
4,0.0079,CCOc1ccccc1-c1cn(-c2ccc(C(=O)O)c(O)c2)cc1C#N [Example 335]
5,0.0057,N#Cc1cn(-c2ccc(C(=O)O)c(O)c2)cc1-c1cccc(O)c1 [Example 338]
6,0.0359,CCCOc1ccc(-c2cn(-c3ccc(C(=O)O)c(O)c3)cc2C#N)cc1 [Example 342]
7,0.0135,CCOc1cccc(-c2cn(-c3ccc(C(=O)O)c(O)c3)cc2C#N)c1 [Example 344]
8,0.0052,N#Cc1cn(-c2ccc(C(=O)O)c(O)c2)cc1-c1nccs1 [Example 348]
9,0.0667,N#Cc1ccn(-c2ccc(C(=O)O)c(O)c2)n1 [Example 354]
10,0.0017,N#Cc1cn(-c2ccc(C(=O)O)c(O)c2)cc1-c1ccco1 [Example 356]
11,0.0213,Cc1ccc(-c2cn(-c3cc(C(=O)O)ccn3)cc2C#N)cc1 [Example 363]
12,0.025,COc1cccc(-c2cn(-c3cc(C(=O)O)ccn3)cc2C#N)c1 [Example 367]

# Further lines, the compound ahead of its results:
row,Compound,IC50 [µM]
1,CCc1c(-c2ccccc2)c(C#N)cn1-c1ccc(C(=O)O)c(O)c1 [Example 327],0.0071
2,N#Cc1cn(-c2ccc(C(=O)O)c(O)c2)cc1-c1ccccc1-c1ccccc1 [Example 328],0.0093
3,N#Cc1ccc(-c2cn(-c3ccc(C(=O)O)c(O)c3)cc2C#N)cc1 [Example 331],0.0053
4,N#Cc1cn(-c2ccc(C(=O)O)c(O)c2)cc1-c1cccc(OCc2ccccc2)c1 [Example 333],0.0878
5,CCCOc1ccccc1-c1cn(-c2ccc(C(=O)O)c(O)c2)cc1C#N [Example 336],0.0364
6,N#Cc1cn(-c2ccc(C(=O)O)c(O)c2)cc1-c1ccc(C(=O)O)cc1 [Example 337],0.004
7,N#Cc1cn(-c2ccc(C(=O)O)c(O)c2)cc1-c1ccc(O)cc1 [Example 339],0.0044
8,CCOc1ccc(-c2cn(-c3ccc(C(=O)O)c(O)c3)cc2C#N)cc1 [Example 340],0.0058
9,CCCOc1cccc(-c2cn(-c3ccc(C(=O)O)c(O)c3)cc2C#N)c1 [Example 341],0.01
10,COCCOc1cccc(-c2cn(-c3ccc(C(=O)O)c(O)c3)cc2C#N)c1 [Example 345],0.0257
11,CC(C)Oc1ccc(-c2cn(-c3ccc(C(=O)O)c(O)c3)cc2C#N)cc1 [Example 346],0.0168
12,COCCOc1ccc(-c2cn(-c3ccc(C(=O)O)c(O)c3)cc2C#N)cc1 [Example 347],0.0122
13,CSc1ccccc1-c1cn(-c2ccc(C(=O)O)c(O)c2)cc1C#N [Example 349],0.0064
14,CSc1ccc(-c2cn(-c3ccc(C(=O)O)c(O)c3)cc2C#N)cc1 [Example 350],0.0137
15,O=C(O)c1ccc(-n2ccc([N+](=O)[O-])c2)cc1O [Example 351],0.0147
16,CC(C)(C)c1nn(-c2ccc(C(=O)O)c(O)c2)cc1C#N [Example 352],0.0032
17,N#Cc1cn(-c2ccc(C(=O)O)c(O)c2)cc1Cc1ccccc1 [Example 357],0.0059
18,N#Cc1ccn(-c2ccc(C(=O)O)c(O)c2)c1 [Example 358],0.0088
19,Cc1cn(-c2ccc(C(=O)O)c(O)c2)cc1C#N [Example 359],0.0061
20,N#Cc1cn(-c2cc(C(=O)O)ccn2)cc1-c1cccs1 [Example 360],0.145
21,Cc1ccccc1-c1cn(-c2cc(C(=O)O)ccn2)cc1C#N [Example 361],0.0885
22,Cc1cccc(-c2cn(-c3cc(C(=O)O)ccn3)cc2C#N)c1 [Example 362],0.0256
23,N#Cc1cn(-c2cc(C(=O)O)ccn2)cc1-c1ccccc1Cl [Example 364],0.0227
24,N#Cc1cn(-c2cc(C(=O)O)ccn2)cc1-c1ccc(Cl)cc1 [Example 365],0.0331
25,COc1ccccc1-c1cn(-c2cc(C(=O)O)ccn2)cc1C#N [Example 366],0.0293
26,COc1ccc(-c2cn(-c3cc(C(=O)O)ccn3)cc2C#N)cc1 [Example 368],0.0133
27,N#Cc1cn(-c2cc(C(=O)O)ccn2)cc1-c1ccc2c(c1)OCCO2 [Example 369],0.0097
28,N#Cc1cn(-c2cc(C(=O)O)ccn2)cc1C1=CCCCC1 [Example 370],0.0199
